Data reported in paper PMC9135303, “Interaction of fungal lipase with potential phytotherapeutics” (PLoS ONE, 2022).
Read-outs that look alike come from different tables or passages of the source.

Experiments:
[1] = biological target: T1, Human Serum Albumin (HSA) (Homo sapiens, UniProt P02768); experiment: Far-UV circular dichroism of HSA; details: 24 hours at 298.15 K, pH 7.4, native -17.76
T1 construct: purchased Sigma-Aldrich
Procedure: CD spectra were obtained over wavelength range of 200–250 nm on Jasco-1500 CD Spectrometer equipped with peltier type temperature controller. 0.1cm quartz cell were used to measure far UV CD spectrum. The concentration of protein used was 0.2 mg/ml (lipase) and 0.35 mg/ml (HSA). Each spectrum was scanned thrice and finally average of 3 was used to analyse the results.

HSA [2] = biological target: T2, HSA (Homo sapiens, UniProt P02768); experiment: UV-Vis absorption spectroscopy of HSA; assay type: binding; set-up: purchased Sigma-Aldrich; details: HSA 0.4mg/ml, shifted from 278 nm, 298.15 K, pH 7.4
T2 sequence (P02768 25-609): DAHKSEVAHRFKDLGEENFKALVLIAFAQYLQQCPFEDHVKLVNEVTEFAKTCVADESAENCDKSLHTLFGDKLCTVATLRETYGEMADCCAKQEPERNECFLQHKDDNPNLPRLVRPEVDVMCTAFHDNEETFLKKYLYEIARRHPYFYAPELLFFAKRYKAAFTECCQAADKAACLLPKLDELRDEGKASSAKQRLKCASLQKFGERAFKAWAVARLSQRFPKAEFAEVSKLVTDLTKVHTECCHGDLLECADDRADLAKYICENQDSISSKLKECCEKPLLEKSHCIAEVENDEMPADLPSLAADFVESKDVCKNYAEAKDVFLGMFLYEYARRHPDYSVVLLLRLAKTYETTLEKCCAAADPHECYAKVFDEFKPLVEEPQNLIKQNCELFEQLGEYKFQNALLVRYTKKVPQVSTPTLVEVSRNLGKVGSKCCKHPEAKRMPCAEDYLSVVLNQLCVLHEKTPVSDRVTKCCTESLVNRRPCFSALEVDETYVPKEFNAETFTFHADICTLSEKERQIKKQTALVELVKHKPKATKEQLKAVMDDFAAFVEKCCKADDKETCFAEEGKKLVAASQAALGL
Source text: UV-visible absorbance spectra were obtained using JASCO, V-560 spectrophotometer in the wavelength range 240 to 340 nm. The baseline was corrected for each spectrum.

Aspergillus niger lipase [3] = experiment: Fluorescence quenching of lipase (Stern-Volmer and double-logarithmic plots); assay type: binding; details: for binding affinity with Aspergillus niger lipase (order of magnitude): conclusion, unit not given; for ksv (Stern-Volmer constant): pH 7.4, ligand 50-400 μM; for kq (quenching rate constant): pH 7.4, τ0 10^-9 s
Procedure: (§1) Lipase and HSA were dialyzed against KCl- buffer (pH 7) for 24 hrs. Stock solution of lipase was prepared in 10 mM phosphate buffer at pH 7.4 to obtain a particular concentration. […] These samples were incubated at 298.0 K for about 24 hrs.
(§2) Fluorescence spectra were recorded on Hitachi F-4010 spectrofluorometer equipped with circulating water bath to maintain the temperature of the cell. The quartz cell of path length 1.0 cm and band slit of 5.0 nm were used for all experiments. The excitation wavelength was 280 nm for lipase and HSA. Emission spectra were recorded from 300–450 nm for lipase and HSA protein.
(§3) Herein, the fluorescence intensities were corrected for absorption of the exciting light and reabsorption of the emitted light to decrease the inner filter effect according to the following equation [10] (Chi & Liu, 2011): Fcorr=Fobs10^Aex+Aem/2, Where Fcorr and Fobs are corrected and experimentally measured fluorescence intensities, respectively. […] The fluorescence intensity utilized in this paper was the corrected intensity.
(§4) Emission fluorescence spectra were measured in the 300–450 nm interval, at a fixed excitation wavelength of 280 nm. Occurrence of an emission maximum at 344 nm in the fluorescence spectrum of lipase can be attributed to the presence of tryptophan residue of lipase. Even though the intrinsic fluorescence of pancreatic lipase is attributed to three amino acid residues, phenylalanine (Phe), tyrosine (Tyr), and tryptophan (Trp), the fluorescence of Phe and Tyr residues at this wavelength is negligible, so intrinsic fluorescence of the fungal enzyme is mainly due to Trp. […] Several earlier reports have shown similar fluorescence quenching of protein upon interaction with various drug molecules, without any shift in the emission maximum. The observed quenching in the protein fluorescence can be induced by a variety of molecular interactions such as rearrangement of molecules, ground-state complex formation, excited-state reactions, energy transfer and collisional quenching.
In order to gain insight into quenching mechanism involved in linalool-lipase, carvacrol- lipase and thymol- lipase interaction, or to gain further insight into the mechanism of tertiary structure we analysed the fluorescence quenching data using Stern–Volmer equation. […] S1A–S1C Fig and Table 1. gives ksv and kq values of Lipase—lin as 1.73 x 10^4 M^-1 and 1.73 x 10^13 M^-1s^-1, Lipase—car as 2.17 x 10^3 and 2.17 x 10^12, Lipase—thy as 1.76 x 10^4 and 1.76 x 10^13 respectively. […] Binding constant and number of binding sites were determined by plotting log (F0—F)/F versus log [ligand] according to equation: Log[(F0–F)/F=logKa+nlogligand] where Ka and n are binding constants and stoichiometry of association process respectively. Linear relationship is obtained from log(F− F0) / F versus log[ligand].

Aspergillus niger lipase [4] = experiment: Lipase inhibition assay with pNPP substrate; assay type: biochemical; details: for inhibition of lipase activity (in words): 0.5 mmoles/litre to 1.5 mmoles/litre, pNPP as substrate; for inhibition of lipase: 1.5 mmol/litre, para-nitrophenyl palmitate (pNPP) substrate, 37°C; for lipase activity: at about 1.5mmoles/litre
Procedure: Lipase assays were performed in a 96-well, clear, flat-bottomed plate with 200 μl reaction volume. pNPP was used as a substrate with a reaction buffer of 50 mM sodium phosphate, 5 mM sodium taurocholate, and 10% isopropanol at pH 8.0 [8, 9]. Lipase assays was performed in 200 μl reaction volume and substrate conversion was monitored with a Multiskan Go spectrophotometer (Thermo Scientific) at 410 nm. All assays were run at 37°C and reported results are the average of three replicates that were blank subtracted. The Lipase inhibitory activity was expressed as percentage inhibition calculated as: % Inhibition = [(Acontrol − Atest sample)/[…]]*100.
Significant inhibition was obtained at 0.5 mmoles/litre. For all three molecules indicating structural changes begin well below this concentration. According to all binding experiments have been performed in concentration range at 50 μM to 400 μM.

lipase = biological target: T3, lipase; experiment: Intrinsic Trp fluorescence quenching of A. niger lipase (excitation 280 nm, ligand 50-400 uM, inner-filter corrected), 10 mM phosphate pH 7.4, samples incubated at 298 K for about 24 h; Ka from double-logarithmic plot.; assay type: binding
T3 construct: commercial (Sigma-Aldrich), dialyzed
Procedure: as §1, §2, §3
as §4, with “quenching. […]” for “quenching.”

HSA [5] = biological target: T2, HSA; experiment: Intrinsic Trp214 fluorescence quenching of HSA (excitation 280 nm, ligand 50-400 uM, inner-filter corrected), 10 mM phosphate pH 7.4, 298 K; Ka from double-logarithmic plot.; assay type: binding; set-up: gene ALB; commercial (Sigma-Aldrich), dialyzed; details: read-out: Ka(M^-1) (converted)
Procedure: as §1, §2, §3
(§5) The HSA were excited at 280nm and spectra were taken from 300nm to […].
The plot of F0/F against [linalool] at 298K is given as S3A Fig. The values of ksv and kq could be calculated from the slope of curves. […] Ka and ‘n’ were calculated from equation: Log[(F0–F)/F] = logKa + n log[linalool].

[6] = biological target: T1, Human Serum Albumin (HSA); experiment: Fluorescence quenching of HSA (Stern-Volmer and double-logarithmic plots); assay type: binding; details: for blue shift in the emission maximum of HSA: excitation 280nm, from 342 nm, throughout the titration
Procedure: as §1, §2, §3, §5
The plot of F0/F against [linalool] at 298K is given as S3A Fig. The values of ksv and kq could be calculated from the slope of curves. The average lifetime of the fluorophore in the absence of the ligand as 6.38 × 10^−9 s for HSA [23]. […] Ka and ‘n’ were calculated from equation: Log[(F0–F)/F] = logKa + n log[linalool].

T1 sequence (P02768 25-609): as above

| SMILES | MRE x 10^3 at 222nm (complex_400 μM) [1] | maximum absorption peak position of ligand-HSA complex (HSA [2]) [nm] | strength of binding to lipase (in words) (Aspergillus niger lipase [3]) | binding affinity with Aspergillus niger lipase (order of magnitude) (Aspergillus niger lipase [3]) | ksv (Stern-Volmer constant) (Aspergillus niger lipase [3]; lipase) [M⁻¹] | kq (quenching rate constant) (Aspergillus niger lipase [3]; lipase) [M⁻¹ s⁻¹] | inhibition of lipase activity (in words) (Aspergillus niger lipase [4]) | inhibition of lipase (Aspergillus niger lipase [4]) | lipase activity (Aspergillus niger lipase [4]) | Ka (lipase) [M⁻¹] | Kd (HSA [5]) [µM] | Kd [6] [µM] | n (number of binding site) ([6]; HSA) | kq (quenching rate constant) ([6]; HSA, 298K) [M⁻¹ s⁻¹] | ksv (Stern-Volmer quenching constant) ([6]; HSA, 298K, ligand 50-400 μM) [M⁻¹] | blue shift in the emission maximum of HSA [6] [nm] | other results |
| --- | --- | --- | --- | --- | --- | --- | --- | --- | --- | --- | --- | --- | --- | --- | --- | --- | --- |
| C=CC(C)(O)CCC=C(C)C (stereo not shown) [linalool] | -23.13 | 278.5 | weak binder | ~10^3 | 17300 | 1.73e+13 | markedly inhibited lipase activity | approximately 50% | approximately 50% | 5300 | 29.4 | ~100 | 1.36 | 3.32e+12 | 3320 | 2 | association constant / binding affinity with HSA (order of magnitude) ([6]; unit inferred): ~10000 M⁻¹ |
| Cc1ccc(C(C)C)cc1O [carvacrol] | -24.91 | 278.2 | strong binders | ~10^7 | 2170 | 2.17e+12 | markedly inhibited lipase activity | approximately 50% | approximately 50% | 4.6e+07 | 45.5 | ~100 | 1.29 | 2.33e+12 | 2330 | 1 | Ka (binding constant) (Aspergillus niger lipase [3]; lipase, pH 7.4, double-logarithmic plot): 4.66e+07 M⁻¹; Ka (binding constant) ([6]; HSA, double-logarithmic plot): 22000 M⁻¹ |
| Cc1ccc(C(C)C)c(O)c1 [thymol] | – | 278.4 | strong binders | ~10^9 | 17600 | 1.76e+13 | markedly inhibited lipase activity | approximately 50% | approximately 50% | 2.6e+09 | – | – | – | – | – | – | kq (quenching rate constant) [6]: 3.21e+13 M⁻¹ s⁻¹; ksv (Stern-Volmer quenching constant) [6]: 32100 M⁻¹ |
